The values that follow come from patent US11541029B2, “High penetration compositions and their applications” (Techfields Pharma Co., Ltd., priority 2008, dated 2023).

Data set [1] concerns eyelashes and hairs. Put plainly: Stimulation of hair growth and eyelash growth by HPCs of prostaglandins. It is filed as in vivo. The following applies: about 1 ml of 1% in pure water on head skin, more than 1 month.
Data set [2] concerns eyelashes and hairs. Described as above. It is filed as in vivo. The following applies: about 0.2 ml of 1% in pure water near the eyelashes, more than 1 month. Here is the method:
(§1) About 0.2 ml of 1% of HPC of N,N-diethylaminoethyl 11,15-dihydroxy-9-oxoprost-13-en-1-oate.HBr (the HPC of prostaglandin E1), N,N-diethylaminoethyl (Z)-7-{[(1R,2R,3R,5S)-3,5-Dihydroxy-2-[1E,3S]-3-hydroxy-5-phenyl-1-pentenyl]cyclopentyl}-5-N-ethylheptenoate.HBr(the HPC of bimatoprost), (13,14-dihydro-17-phenyl-18,19,20-trinor PGF2αN,N-diethylaminoethyl ester, N,N-diethylaminoethyl (Z)-7-[(1R,2R,3R,5S)-3,5-dihydroxy-2-[(1E,3R)-3-hydroxy-4-[(α,α,α-trifluoro-m-tolyl)oxy]-1-butenyl]cyclopentyl]-5-heptenoate.HBr, or 13,14-dihydro-15-keto-20-ethyl PGF2αN,N-diethylaminoethyl ester in pure water is applied to the skin area close to the eyelashes (0.1 ml solution for each eye).
as §1, with “1” for “0.2”, “(frontal and parietal areas) on” for “area close to”, “head skull.” for “eyelashes (0.1 ml solution for each eye).”

For data set [3], the system named is Human colon cancer cells (LS174J). As to the kind of experiment: Human colon cancer xenograft in nude mice. An excerpt: Human colon cancer cells (LS174J, 2-3 mm^3 of tumor tissue was used in each mouse) were subcutaneously xenografted into nude mice (BALB).
For data set [4], the system named is lesions similar to psoriasis generated by Malassezia. Put plainly: Anti-psoriasis activity, Malassezia-induced lesions. It is filed as in vivo, Chinese white rabbits. The note with it: HPC 5% aq. applied to the lesion areas twice per day. As to the method: Heavy suspensions of Malassezia [Rosenberg, E. W., et al., Mycopathologia, 72, 147-154 (1980)] were applied to the shaved skin on the backs of Chinese white rabbits (n=4×6) twice (at […]) per day for 2 weeks to generate lesions similar to psoriasis. HPCs (5%, aq.) were applied to the same areas 3 hours (10 am and 6 pm) after the application of Malassezia (7 am and 3 pm). […] HCl, diethylaminoethyl 1,8-diethyl-1,3,4,9-tetrahydropyrano-[3,4-b]indole-1-acetate.HCl, diethylaminoethyl 2-amino-3-(4-bromo-benzoyl)benzeneacetate.HCl, diethylaminoethyl 3-chloro-4-(2-propenyloxy)benzeneacetate. HCl, diethylaminoethyl 1-(4-chlorobenzoyl-5-methoxy-2-methyl-1H-indole-3-acetoxyacetate. HCl, diethylaminoethyl 4-(4-chlorophenyl)-2-phenyl-5-thiazoleacetate.HCl, and diethylaminoethyl 3-(4-chlorophenyl)-1-phenyl-1H-pyrazole-4-acetate.HCl

Data set [5] deals with Human breast cancer cells (BCAP-37). As to the kind of experiment: Human breast cancer xenograft in nude mice. Here is the method:
Human breast cancer cells (BCAP-37, 2-3 mm^3 of tumor tissue was used in each mouse) were subcutaneously xenografted into nude mice (BALB, 12 groups, 7 mice each group). […] 50 μl of 5% (equal to 2.5 mg of the HPCs) diethylaminoethyl acetylsalicylate.HCl (P-1, in pure water); 1-piperidinepropyl 2[(2,6-dichlorophenyl)amino]benzene acetate.HCl (P-2, in water), 1-pyrrolidinepropyl 2-(3-benzoylphenyl) propionate.HCl (P-3, in water), 4-piperidinemethyl 2-(3-phenoxyphenyl)propionate.HCl (P-4, in water), 3-piperidinemethyl 2-(ρ-isobutylphenyl) propionate.HCl (P-5, in water), diethylaminoethyl 1-(p-chlorobenzoyl)-5-methoxy-2-methylindole 3-acetate.HCl (P-11, in water), 2-(4-morpholinyl)ethyl (Z)-5-fluoro-2-methyl-1-[(4-methylsulfinyl)phenylmethylene]-1H-indene-3-acetate.
(In general: In xenograft studies the graft and the host belong to different species.)

The subject of another data set is Hypertension patients. Put plainly: Anti-hypertensive effect of transdermal atenolol HCl salt in patients. It is filed as in vivo, human. As to the method:
20 Hypertension patents were divided to 2 groups. Group A was control group (n=10, 1 ml of water was administrated to the chest of patients once per day) and group B was atenolol treated group (n=10, 100 mg of atenolol HCl salt was administrated to the chest of patients once per day).

For data set [6], the system named is methicillin-resistant Staphylococcus aureus (MRSA). As to the kind of experiment: Minimum inhibitory concentrations (MICs). It is filed as cell-based. Here is the method:
Minimum inhibitory concentrations (MICs) of the antimicrobials and their HPCs were assessed according to Jennifer M. Andrews, Journal of Antimicrobial Chemotherapy 48, suppl. S1, 5-16 (2001). […] The test compounds are: 6-phenoxyacetacetamidopenicillanic acid 1-piperidineethyl ester hydrochloride (penicillin V-PEE), penicillin V, 6-(2,6-dimethoxybenzamido)penicillinic acid 2-pyrrolidinemethyl ester hydrochloride (methicillin-PME), methicillin, 7-[[(2-acetylamino-4-thiazolyl)(methoxyimino)acetyl]amino]-8-oxo-5-thia-1-azabicyclo[4.2.0]oct-2-ene-2-carboxylic acid 2-diethylaminoethyl ester hydrochloride (ceftizoxime-DEE), and ceftizoxime).

Data set [7] deals with MPTP-induced Parkinson's disease mice. Put plainly: Anti-Parkinson's disease activity in MPTP-induced mice. The following applies: mouse, in vivo.
Method: Group A mice were ip injected 0.4% sodium carboxymethylcellulos (15 ml/kg per day) for 7 days. Group B and C mice were ip injected N-methyl-4-phenyl-1,2,3,6-tetrahydropyridine (MPTP, 30 mg/kg per day) for 7 days. The mice were divided into 2 groups. […] All mice were killed after the last treatment and the brain tissues were quickly freezed at −80° C. […] The contents of malondialdehyde (MDA) in the SN were measured with the thiobarbituric acid-reaction to indicate the LPO, and contents of glutathione (GSH) in the substantia nigra (SN) were based on the dithionitrobenzonic acid (DTNB) determination. The contents of GABA and Glu in the striatum and SN were shown by high performance amino acid auto-analyser.
Where [8] appears, read: about 50 μl of 5% topically every 12 hours.
Where [9] appears, read: 100 mg to the chest once per day, n=10.

≈ marks a conversion by molar mass, not a printed value. Counter-ions that a name gives are not always drawn. Like-named read-outs stand apart in the source and are kept apart here.

With `CCCCCCCC(=O)CC[C@@H]1[C@@H](C/C=C\CCCC(=O)OCCN(CC)CC)[C@@H](O)C[C@H]1O` [13,14-dihydro-15-keto-20-ethyl PGF2αN,N-diethylaminoethyl ester], the hair growth entry with eyelashes and hairs [1] is “grow longer and fuller”. The eyelash growth entry in the data set with eyelashes and hairs [2] is “grow longer and fuller”.

As for `CCN(CC)CCOC(=O)CCC/C=C\C[C@@H]1[C@@H](CC[C@@H](O)CCc2ccccc2)[C@H](O)C[C@@H]1O` [(13,14-dihydro-17-phenyl-18,19,20-trinor PGF2αN,N-diethylaminoethyl ester], the hair growth entry in the data set on eyelashes and hairs [1] was “grow longer and fuller”. In addition, in the data set with eyelashes and hairs [2], the eyelash growth result is “grow longer and fuller”.

Turning to `Br.CCN(CC)CCOC(=O)CCC/C=C\C[C@@H]1[C@@H](/C=C/[C@@H](O)CCc2ccccc2)[C@H](O)C[C@@H]1O` [HPC of bimatoprost, N,N-diethylaminoethyl (Z)-7-{[(1R,2R,3R,5S)-3,5-Dihydroxy-2-[1E,3S]-3-hydroxy-5-phenyl-1-pentenyl]cyclopentyl}-5-N-ethylheptenoate.HBr], the hair growth entry with eyelashes and hairs [1] was “grow longer and fuller”. For the same molecule, the eyelash growth result with eyelashes and hairs [2] was “grow longer and fuller”.

Consider `Br.CCCCCC(O)C=C[C@H]1C(O)CC(=O)[C@@H]1CCCCCCC(=O)OCCN(CC)CC` (stereo partly shown) [HPC of prostaglandin E1, N,N-diethylaminoethyl 11,15-dihydroxy-9-oxoprost-13-en-1-oate.HBr], for which the hair growth entry in the data set with eyelashes and hairs [1] is “grow longer and fuller”. The eyelash growth entry in the data set on eyelashes and hairs [2] was “grow longer and fuller”.

Take `Br.CCN(CC)CCOC(=O)CCC/C=C\C[C@@H]1[C@@H](/C=C/[C@@H](O)COc2cccc(C(F)(F)F)c2)[C@H](O)C[C@@H]1O` [N,N-diethylaminoethyl (Z)-7-[(1R,2R,3R,5S)-3,5-dihydroxy-2-[(1E,3R)-3-hydroxy-4-[(α,α,α-trifluoro-m-tolyl)oxy]-1-butenyl]cyclopentyl]-5-heptenoate.HBr]: in the data set on eyelashes and hairs [1], the hair growth result is “grow longer and fuller”. In addition, the eyelash growth entry in the data set with eyelashes and hairs [2] is “grow longer and fuller”.

Regarding `CC(C)Cc1ccc(C(C)C(=O)OCC2CCCNC2)cc1.Cl` (stereo not shown) [P-5, 3-piperidinemethyl 2-(ρ-isobutylphenyl) propionate.HCl], in data set [3] (setting [8]), the “tumor Size at day 30” value is 520 ± 140 mm^3. In data set [3] (in vivo), the “Weight of mice at day 30” value came out at 23 ± 2. The “time until lesions healed after the application” value (from here on “time until lesions healed”) in data set [4] is listed as 10 days. Also, the “tumor Size at day 42” value in data set [5] (50 μl of 5% topically every 8 hours) came to 180 ± 55 mm^3. Besides, the “Weight of mice at day 42” value in data set [5] (in vivo) was 23 ± 2.

Consider `CCN(CC)CCOC(=O)Cc1ccc(C(=O)c2ccc(C)cc2)n1C.Cl` [P-13, diethylaminoethyl 1-methyl-5-(4-methylbenzoyl)-1H-pyrrole-2-acetate.HCl], for which, in data set [3] (setting [8]), the “Weight of mice at day 30” value is 23 ± 3 and the “tumor Size at day 30” value came to 690 ± 250 mm^3. The “time until lesions healed” value in data set [4] is given as 10 days.

As to `CC(C)NCC(O)COc1ccc(CC(N)=O)cc1` (stereo not shown) [atenolol HPC, atenolol HCl salt], the side effect entry in the data set on Hypertension patients (100 mg in 1 ml of pure water per day transdermally) is listed as “without side effect of hypotention”. In the data set on Hypertension patients (setting [9]), the “Blood Pressure (before treatment), first figure of the pair” value was found to be 160 ± 22 mmHg; the “Blood Pressure (before treatment), second figure of the pair” value was determined as 110 ± 20 mmHg; the “Blood pressure (2 weeks after treatment), first figure of the pair” value is reported as 128 ± 15 mmHg; the “Blood pressure (2 weeks after treatment), second figure of the pair” value stood at 81 ± 12 mmHg.

Consider `CO/N=C(\C(=O)N[C@@H]1C(=O)N2C(C(=O)O)=CCS[C@H]12)c1csc(N)n1` [ceftizoxime, reference compound], for which the MIC (as a rule, the least concentration at which growth counts as inhibited) in data set [6] (read-out: MIC) came out at 986 µg/mL (≈ 2.57 mM).

As to `CCN(CC)CCOC(=O)C1=CCSC2C(NC(=O)C(=NOC)c3csc(NC(C)=O)n3)C(=O)N12.Cl` (stereo not shown) [ceftizoxime-DEE, 7-[[(2-acetylamino-4-thiazolyl)(methoxyimino)acetyl]amino]-8-oxo-5-thia-1-azabicyclo[4.2.0]oct-2-ene-2-carboxylic acid 2-diethylaminoethyl ester hydrochloride], the MIC in data set [6] (read-out: MIC) was determined as 2.5 µg/mL.

In the case of `CCN(CC)CCOC(=O)Cc1cc(C)c(C(=O)c2ccc(Cl)cc2)n1C.Cl` [diethylaminoethyl 5-(4-Chlorobenzoyl)-1,4-dimethyl-1H-pyrrole-2-acetate. HCl], the “time until lesions healed” value in data set [4] turned out to be 10 days.

Take `COc1cccc(OC)c1C(=O)N[C@@H]1C(=O)N2[C@@H]1SC(C)(C)[C@@H]2C(=O)O` [methicillin, reference compound]: the MIC in data set [6] (read-out: MIC) was 1160 µg/mL (≈ 3.04 mM).

In data set [6], `COc1cccc(OC)c1C(=O)NC1C(=O)N2C1SC(C)(C)C2C(=O)OCC1CCCN1.Cl` (stereo not shown) [methicillin-PME, 6-(2,6-dimethoxybenzamido)penicillinic acid 2-pyrrolidinemethyl ester hydrochloride] came in with an MIC of 19 µg/mL.

Consider `NC(=O)C[S+]([O-])C(c1ccccc1)c1ccccc1` (stereo not shown) [modafinil, reference compound], for which the “effect on the increase of nigrostriatal Glu release induced by MPTP” value in data set [7] is on record as “did not change the increase of nigrostriatal Glu release induced by MPTP”.

Molecule `CC1(C)S[C@@H]2[C@H](NC(=O)COc3ccccc3)C(=O)N2[C@H]1C(=O)O` [penicillin V, reference compound] came in with a minimal inhibitory concentration (MIC) in data set [6] of 1824 µg/mL (≈ 5.21 mM).

With `CC1(C)SC2C(NC(=O)COc3ccccc3)C(=O)N2C1C(=O)OCCN1CCCCC1.Cl` (stereo not shown) [penicillin V-PEE, 6-phenoxyacetacetamidopenicillanic acid 1-piperidineethyl ester hydrochloride], in data set [6], the MIC came to 12 µg/mL.
